# Data published in article PMC3268193 (British Journal of Pharmacology, 2012).
# Positions count from the first letter of the chain named. Where “and” joins values, the source holds several entries; their conditions need not be identical. Equal entries are not always repeated.
# How the values were obtained:
# P2X2 Cys1(3-4) chimera = biological target: T1, P2X2 Cys1(3-4) chimera (Homo sapiens, UniProt Q9UBL9, A144P/D148K/E146K/G151A/L147A/L150K/L154I/M149R/N152Q/R158K/V143T); experiment: Two-electrode voltage clamp, chimera P2X2 Cys1; format: cell-based
# T1 sequence (Q9UBL9 1-471 V143T/A144P/E146K/L147A/D148K/M149R/L150K/G151A/N152Q/L154I/R158K): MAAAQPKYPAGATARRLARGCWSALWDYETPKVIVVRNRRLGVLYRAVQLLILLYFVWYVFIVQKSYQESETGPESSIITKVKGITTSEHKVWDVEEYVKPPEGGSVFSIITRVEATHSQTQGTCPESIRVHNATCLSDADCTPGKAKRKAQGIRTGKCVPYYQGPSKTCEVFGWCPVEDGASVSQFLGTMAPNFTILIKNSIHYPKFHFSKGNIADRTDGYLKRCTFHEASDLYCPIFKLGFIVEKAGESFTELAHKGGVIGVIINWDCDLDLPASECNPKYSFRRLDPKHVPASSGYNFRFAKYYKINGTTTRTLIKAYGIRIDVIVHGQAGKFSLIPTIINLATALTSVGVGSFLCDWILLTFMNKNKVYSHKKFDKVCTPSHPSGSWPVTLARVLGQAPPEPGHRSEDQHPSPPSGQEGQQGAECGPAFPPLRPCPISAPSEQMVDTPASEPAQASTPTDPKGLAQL
# human P2X1 receptor WT = biological target: T2, human P2X1 receptor WT (Homo sapiens, UniProt P51575); experiment: Two-electrode voltage clamp, WT P2X1 receptor in Xenopus oocytes; format: cell-based
# T2 sequence (P51575 1-399): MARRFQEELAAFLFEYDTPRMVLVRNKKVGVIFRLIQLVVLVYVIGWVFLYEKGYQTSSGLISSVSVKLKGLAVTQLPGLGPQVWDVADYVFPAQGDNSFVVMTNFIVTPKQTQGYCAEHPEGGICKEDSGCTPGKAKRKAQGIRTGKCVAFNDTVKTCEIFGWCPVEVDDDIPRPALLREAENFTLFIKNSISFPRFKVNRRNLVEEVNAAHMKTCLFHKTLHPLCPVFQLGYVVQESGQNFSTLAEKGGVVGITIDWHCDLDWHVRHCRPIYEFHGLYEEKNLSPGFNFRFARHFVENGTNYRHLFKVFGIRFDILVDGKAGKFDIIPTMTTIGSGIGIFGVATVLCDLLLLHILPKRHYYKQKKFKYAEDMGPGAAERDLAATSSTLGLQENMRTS
# human P2X2 receptor WT = biological target: T3, human P2X2 receptor WT (Homo sapiens, UniProt Q9UBL9); experiment: Two-electrode voltage clamp, WT P2X2 receptor in Xenopus oocytes; format: cell-based
# T3 sequence (Q9UBL9 1-471): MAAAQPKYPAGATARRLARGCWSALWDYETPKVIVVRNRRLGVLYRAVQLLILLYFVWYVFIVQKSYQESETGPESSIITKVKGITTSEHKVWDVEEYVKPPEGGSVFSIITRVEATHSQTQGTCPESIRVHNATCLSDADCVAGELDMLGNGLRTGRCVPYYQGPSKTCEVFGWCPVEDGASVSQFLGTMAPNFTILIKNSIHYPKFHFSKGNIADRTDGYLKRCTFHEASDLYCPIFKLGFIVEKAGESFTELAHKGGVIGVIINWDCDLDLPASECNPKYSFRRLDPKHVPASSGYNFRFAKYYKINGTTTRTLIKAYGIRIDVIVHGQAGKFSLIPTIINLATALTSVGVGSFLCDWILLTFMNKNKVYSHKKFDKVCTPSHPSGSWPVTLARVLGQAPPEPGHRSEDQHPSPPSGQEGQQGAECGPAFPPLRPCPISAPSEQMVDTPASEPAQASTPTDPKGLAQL
# P2X1 Cys2(1-3) chimera = biological target: T4, P2X1 Cys2(1-3) chimera (Homo sapiens, UniProt P51575, A118P/DEL120-123/E128S/G124S/G131D/INS125RVHNAT/K127L/S130A); experiment: Two-electrode voltage clamp, chimera P2X1 Cys2; format: cell-based
# T4 sequence (P51575 with tags, fused parts or gaps A118P/DEL120-123/G124S/INS125RVHNAT/K127L/E128S/S130A/G131D): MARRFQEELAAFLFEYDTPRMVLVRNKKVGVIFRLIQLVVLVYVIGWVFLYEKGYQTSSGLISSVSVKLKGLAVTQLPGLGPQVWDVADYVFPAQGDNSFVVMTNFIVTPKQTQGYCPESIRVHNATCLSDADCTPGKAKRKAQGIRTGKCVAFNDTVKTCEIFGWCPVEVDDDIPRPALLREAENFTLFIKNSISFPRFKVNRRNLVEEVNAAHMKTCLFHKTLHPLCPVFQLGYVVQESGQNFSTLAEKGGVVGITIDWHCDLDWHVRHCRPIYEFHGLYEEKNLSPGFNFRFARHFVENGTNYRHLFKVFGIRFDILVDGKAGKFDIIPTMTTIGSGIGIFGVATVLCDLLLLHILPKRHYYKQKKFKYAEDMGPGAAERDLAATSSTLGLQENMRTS
# [1] = biological target: T5, P2X2 receptor mutant D136K (Homo sapiens, UniProt Q9UBL9, D148K); experiment: Two-electrode voltage clamp, P2X2 mutant D136K; format: cell-based
# T5 sequence (Q9UBL9 1-471 D148K): T3 sequence (Q9UBL9 1-471) with D148K
# [2] = test system: WT or mutant P2X receptors; experiment: Holding current in the absence of ATP; format: cell-based, human
# [3] = biological target: T6, P2X1 receptor mutant K136E (Homo sapiens, UniProt P51575, K136E); experiment: Two-electrode voltage clamp, P2X1 mutant K136E; format: cell-based
# T6 sequence (P51575 1-399 K136E): T2 sequence (P51575 1-399) with K136E
Increase in suramin sensitivity compared with WT P2X2 (P2X2 Cys1(3-4) chimera),Difference in suramin sensitivity between human P2X1 and P2X2 receptors (human P2X1 receptor WT),"Reduction of responses to ATP (human P2X2 receptor WT; P2X2, 100 µM suramin, ATP 30 µM (EC90))",Increase in suramin sensitivity compared with WT P2X1 (P2X1 Cys2(1-3) chimera),Effect of mutation on suramin sensitivity [1],Effect of mutation on suramin sensitivity [3],"IC50 (P2X2 Cys1(3-4) chimera; read-out: NF449 IC50, vs EC90 ATP)",Schild slope (human P2X1 receptor WT; WT P2X1),"Hill slope of NF449 inhibition curve (human P2X1 receptor WT; WT P2X1, vs EC90 ATP)","NF449 pIC50 (human P2X2 receptor WT; P2X2 WT, vs EC90 concentration of ATP)","Hill slope of NF449 inhibition curve (human P2X2 receptor WT; WT P2X2, vs EC90 ATP)","IC50 (human P2X2 receptor WT; read-out: NF449 IC50, P2X2 receptor, vs EC90 ATP (30 µM))",Reduction in NF449 sensitivity compared with P2X1 WT (P2X1 Cys2(1-3) chimera),Effect of mutation on NF449 sensitivity [1],Effect on holding current ([2]; NF449 10 µM),"Reduction of ATP-evoked current ([3]; 1 nM antagonist, EC90 ATP (10 µM))",SMILES,Effect on holding current ([2]; suramin 100 µM)
~30 fold,~60 fold,~50%,15 fold,no effect,no effect,–,–,–,–,–,–,–,–,–,–,Cc1ccc(C(=O)Nc2ccc(S(=O)(=O)O)c3cc(S(=O)(=O)O)cc(S(=O)(=O)O)c23)cc1NC(=O)c1cccc(NC(=O)Nc2cccc(C(=O)Nc3cc(C(=O)Nc4ccc(S(=O)(=O)O)c5cc(S(=O)(=O)O)cc(S(=O)(=O)O)c45)ccc3C)c2)c1 [suramin],no effect
–,–,–,–,–,–,1.1 µM,1.17± 0.16,0.98 ± 0.13,5.86 ± 0.09,1.61 ± 0.08,~1 µM and ~1.5 µM,~20 fold,no effect,no effect,40–70%,"O=C(Nc1cc(C(=O)Nc2ccc(S(=O)(=O)O)cc2S(=O)(=O)O)cc(C(=O)Nc2ccc(S(=O)(=O)O)cc2S(=O)(=O)O)c1)Nc1cc(C(=O)Nc2ccc(S(=O)(=O)O)cc2S(=O)(=O)O)cc(C(=O)Nc2ccc(S(=O)(=O)O)cc2S(=O)(=O)O)c1 [NF449, 4,4′,4′′,4′′′-(carbonylbis(imino-5,1,3-benzenetriyl-bis(carbonylimino)))tetrakis-benzene-1,3-disulphonic acid]",–
